Key:
[1] = Prolonged piperidine treatment of VKDNYI peptide resin (aspartimide formation, Asp-Asn motif); format: physicochemical; conditions: for D/L-Asu [%] / piperidides [%] / target [%]: 110 Fmoc removal cycles; for target [%]: target peptide VKDNYI
Description: (§1) Automated peptide synthesis, piperidine treatments of the resin samples and final TFA cleavages are performed as described in the protocols of example 4. In addition, 50 mg peptide resin samples are treated with a solution of DBU/piperidine/DMF (1:19:79) over 225 minutes to investigate the aspartimide formation at harsher Fmoc deprotection conditions often used for complete Fmoc removals in aggregation prone sequences.
(§2) The resulting peptide samples are analysied and all relevant impurities identified by UPLC-MS analysis (Xevo Waters Q-TOF-1, lock mass = 556.277 (leu-enkephaline), LC-conditions: CHS 18 1,7 µm (100x2.1 mm) at 40°C; water acetonitrile gradient of 5% to 35 % B over 10 min where buffer A is 0.1 % formic acid in water and buffer B is 0.1 % formic acid in acetonitrile, flow 0.6 ml/min).
In table 2 the amounts of by-products formed after the prolonged exposure of the peptide resins to piperidine (110 Fmoc removal cycles) are summarized for all side-chain protections used in this invention. […] Table 2: Results after 110 Fmoc removal cycles using piperidine, target peptide = VKDNYI, the aspartimide (Asu) derived by products are the aspartimide itself and the sum of piperidides

[2] = Prolonged DBU treatment of VKDNYI peptide resin (aspartimide formation); format: physicochemical; conditions: for D/L-Asu [%] / piperides [%]: DBU/piperidine/DMF (1:19:79), 225 minutes; for target [%]: target peptide VKDNYI, DBU/piperidine/DMF (1:19:79) over 225 minutes, 110 Fmoc removal cycles
Description: as §1, §2
In table 3 the amounts of by-products formed after prolonged DBU treatments are summarized for all side-chain protections used in this invention. […] Since the DBU mediated Fmoc removals are much quicker than the piperidine mediated, this experiment again represents a Fmoc SPPS assembly of an 100mer after introducing the aspartic acid residue using exclusively DBU for Fmoc cleavage. Table 3: Results after 110 Fmoc removal cycles using DBU, target peptide = VKDNYI, the aspartimide (Asu) derived by-products are the aspartimide itself and the sum of piperidides

[3] = Prolonged piperidine treatment of VKDRYI peptide resin (aspartimide formation, Asp-Arg motif); format: physicochemical; conditions: for D/L-Asu [%] / piperidides [%] / target [%]: 110 Fmoc removal cycles; for target [%]: target peptide VKDRYI
Description: (§3) Automated peptide synthesis, piperidine treatments of the resin samples and final TFA cleavages are performed as described in the protocols of example 4. In addition, to evaluate the advantage of the protecting groups used in this invention in heat accelerated SPPS we treat 50 mg peptide resin samples with a solution of 20% piperidine in DMF at 60°C over 200 minutes. Microwave assisted peptide synthesis conditions are often used to shorten peptide synthesis times and increase coupling reaction and Fmoc deprotection.
In table 4 the amounts of by-products formed after the prolonged exposure of the peptide resins to piperidine (110 Fmoc removal cycles) are summarized for all side-chain protections used in this invention. Table 4: Results after 110 Fmoc removal cycles using piperidine, target peptide sequence = VKDRYI, the aspartimide (Asu) derived by-products are the aspartimide itself and the sum of piperidides

[4] = Prolonged piperidine treatment at 60°C of VKDRYI peptide resin (aspartimide formation); format: physicochemical; conditions: for D/L-Asu [%] / piperidides [%]: 20% piperidine in DMF at 60°C, 200 minutes; for target [%]: target peptide VKDRYI, 20% piperidine in DMF at 60°C over 200 minutes, 100 Fmoc removal cycles; for aspartimide by-products per cycle: piperidine at 60 degrees Celsius
Description: as §3
The application of microwave heating to SPPS is accelerating coupling and deprotection reactions leading to shorter cycle times, higher repetitive yields, and ultimately purer peptides. On the other hand, microwave energy can also lead to increased levels of aspartimide by-products. To overcome that drawback we evaluated the advantage of the side-chain protections used in this invention by exposing the peptide resins to Fmoc removal cycles at 60 degrees Celsius.
In table 5 the amounts of by-products formed after the prolonged exposure of the peptide resins to piperidine at 60 degree Celsius (100 Fmoc removal cycles) are summarized for all side-chain protections used in this invention. […] Table 5: Results after 100 Fmoc removal cycles using piperidine at 60°C, target peptide sequence = VKDRYI, the aspartimide (Asu) derived by-products are the aspartimide itself and the sum of piperidides

[5] = Prolonged treatment of VKDGYI peptide resin with 1 M Oxyma Pure and 20 % piperidine (aspartimide formation); format: physicochemical; conditions: VKDGYI; for Asu per 10' cycle / Asu [%] / piperidides [%]: Oxyma Pure +; for Asu [%] / piperidides [%] / target [%]: 18 hours; for target [%]: Oxyma Pure +: 1 M Oxyma Pure and 20 % piperidine in dimethylformamide
Description: [drawing 14] 50 mg samples of the corresponding aspartic acid derivatives of example 4 are treated over 18 hours with a solution of 1 M Oxyma Pure and 20 % piperidine in dimethylformamide. The peptides are cleaved off the resin with 95 % TFA and analysed with HPLC as well as MS to identify all aspartimide related products (conditions see example 4). The results are summarized in table 6: Table 6: Results after 110 Fmoc removal cycles using an acidic modifier in the piperidine mediated Fmoc removal cocktails, target peptide = VKDG YI, the aspartimide derived by-products are the aspartimide itself and the sum of piperidides

[6] = Prolonged piperidine treatment of VKDGYI peptide resin (aspartimide formation, Asp-Gly motif)
[7] = VKDGYI, 20 % piperidine in dimethylformamide
[8] = VKDGYI, 20 % piperidine in dimethylformamide, 18 hours, aspartimide
[9] = VKDGYI, 20 % piperidine in dimethylformamide, 18 hours, sum of piperidides
[10] = VKDGYI, Oxyma Pure -: 20 % piperidine only, 18 hours (as Table 1)
[11] = target peptide VKDGYI, 20 % piperidine in dimethylformamide over 18 hours, 110 Fmoc removal cycles

CCCCC(CCCC)(CCCC)OC(=O)C[C@H](NC(=O)OCC1c2ccccc2-c2ccccc21)C(=O)O [Bno]
Asu per 10' cycle ([1]; VKDNYI, piperidine): 0.04 | aspartimide side reaction during the Fmoc removals, rate per cycle ([1]; VKDNYI, piperidine): 0.05% | D/L-Asu [%] ([1]; VKDNYI, piperidine): 0.9% | piperidides [%] ([1]; VKDNYI, piperidine): 3.6% | target [%] ([1]; piperidine): 95.5% | Asu per 2' cycle ([2]; VKDNYI, DBU): 0.3 | aspartimide formation per 2 minute Fmoc removal cycle ([2]; VKDNYI, DBU): less than 0.3% | D/L-Asu [%] ([2]; VKDNYI): 3.5% | piperides [%] ([2]; VKDNYI): 22.0% | target [%] [2]: 74.5% | Asu per 10' cycle ([3]; VKDRYI): 0.06 | Half-life in cycles ([3]; VKDRYI): 1202 cycles | aspartimide side reaction during the Fmoc removals per cycle ([3]; VKDRYI): less than 0.06% | D/L-Asu [%] ([3]; VKDRYI): 2.6% | piperidides [%] ([3]; VKDRYI): 3.6% | target [%] [3]: 93.8% | Half-life in cycles [4]: 718 cycles | D/L-Asu [%] ([4]; VKDRYI): 4.9% | piperidides [%] ([4]; VKDRYI): 4.3% | Asu per 10' cycle ([4]; VKDRYI, piperidine at 60°C): 0.1 | target [%] [4]: 90.8%

CCC(CC)(CC)OC(=O)C[C@H](NC(=O)OCC1c2ccccc2-c2ccccc21)C(=O)O [Epe, (2S)-N-((9H-fluoren-9-ylmethyloxy)carbonyl)aspartic acid-4-((3-ethyl)pent-3-yl) ester]
Half-life in cycles [1]: 365 cycles | Asu per 10' cycle ([1]; VKDNYI, piperidine): 0.2 | D/L-Asu [%] ([1]; VKDNYI, piperidine): 3.0% | piperidides [%] ([1]; VKDNYI, piperidine): 16.0% | target [%] ([1]; piperidine): 81.0% | Half-life in cycles [2]: 138 cycles | Asu per 2' cycle ([2]; VKDNYI, DBU): 0.5 | D/L-Asu [%] ([2]; VKDNYI): 5.6% | piperides [%] ([2]; VKDNYI): 37.3% | target [%] [2]: 57.1% | Asu per 10' cycle ([3]; VKDRYI): 0.1 | Half-life in cycles ([3]; VKDRYI): 539 cycles | D/L-Asu [%] ([3]; VKDRYI): 3.90% | piperidides [%] ([3]; VKDRYI): 9.4% | target [%] [3]: 86.7% | Half-life in cycles [4]: 439 cycles | D/L-Asu [%] ([4]; VKDRYI): 7.8% | piperidides [%] ([4]; VKDRYI): 6.8% | aspartimide by-products per cycle ([4]; VKDRYI): 0.2% | Asu per 10' cycle ([4]; VKDRYI, piperidine at 60°C): 0.2 | target [%] [4]: 85.4% | Asu per 10' cycle [5]: 0.14 | Asu [%] [5]: 2.6% | piperidides [%] [5]: 11.7% | target [%] [5]: 85.7% | Asu per 10' cycle [%] [6, 7]: 0.4% | Asu [%] [6, 8]: 4.1% | piperidides [%] [6, 9]: 31.5% | Asu [%] ([6]; VKDGYI, Oxyma Pure -): 4.1% | Asu per 10' cycle ([6]; VKDGYI, Oxyma Pure -): 0.4 | piperidides [%] ([6]; VKDGYI, Oxyma Pure -): 31.5% | target [%] [6, 10]: 64.4% | minimizes the aspartimide formation by a factor compared to Mpe ([6]; VKDGYI, relative to Mpe protection): two | target [%] [6, 11]: 64.4%

CCC(C)(CC)OC(=O)C[C@H](NC(=O)OCC1c2ccccc2-c2ccccc21)C(=O)O [Mpe, Fmoc-Asp(OMpe)-OH, reference compound]
Asu per 10' cycle ([1]; VKDNYI, piperidine): 0.5 | Half-life in cycles ([1]; VKDNYI, piperidine): 140 cycles | D/L-Asu [%] ([1]; VKDNYI, piperidine): 4.3% | piperidides [%] ([1]; VKDNYI, piperidine): 37.5% | times more aspartimide per Fmoc removal cycle ([1]; VKDNYI, piperidine, in comparison to Bno): ten | target [%] ([1]; piperidine): 58.2% | Asu per 2' cycle ([2]; VKDNYI, DBU): 1.5 | Half-life in cycles ([2]; VKDNYI, DBU, 2' cycles): 46 cycles | D/L-Asu [%] ([2]; VKDNYI): 7.5% | piperides [%] ([2]; VKDNYI): 73.7% | target [%] [2]: 18.8% | Asu per 10' cycle ([3]; VKDRYI): 0.4 | Half-life in cycles ([3]; VKDRYI): 173 cycles | D/L-Asu [%] ([3]; VKDRYI): 6.9% | piperidides [%] ([3]; VKDRYI): 28.9% | times more aspartimide per Fmoc removal cycle ([3]; VKDRYI, in comparison to Bno): approximately seven | Half-life in cycles ([3]; VKDRYI, listed as Fmoc-Asp(OMpe)-OH): approx. 170 cycles | target [%] [3]: 64.2% | D/L-Asu [%] ([4]; VKDRYI): 16.9% | piperidides [%] ([4]; VKDRYI): 19.6% | aspartimide by-products per cycle ([4]; VKDRYI): 0.5% | Asu per 10' cycle ([4]; VKDRYI, piperidine at 60°C): 0.5 | Half-life in cycles ([4]; VKDRYI, piperidine at 60°C): 153 cycles | target [%] [4]: 63.5% | Asu per 10' cycle [5]: 0.16 | Asu [%] [5]: 3.8% | piperidides [%] [5]: 12.0% | target [%] [5]: 84.2% | Asu per 10' cycle [%] [6, 7]: 0.8% | Half-life in 10' cycles [6, 7]: 90 10' cycles | Asu [%] [6, 8]: 6.7% | piperidides [%] [6, 9]: 51.0% | Asu [%] ([6]; VKDGYI, Oxyma Pure -): 6.7% | Asu per 10' cycle ([6]; VKDGYI, Oxyma Pure -): 0.8 | piperidides [%] ([6]; VKDGYI, Oxyma Pure -): 51.0% | target [%] [6, 10]: 42.3% | target [%] [6, 11]: 42.3%

Reference: patent publication EP2886531B1, “Aspartic acid derivatives” (Merck Patent GmbH, priority 2013, dated 2015)
